For series [1], the system named is CEM-SS. Kind of series: Cytotoxicity against Human immunodeficiency virus 1 3B infected human CEM-SS cells. The series is classed as functional. The conditions noted are these: read-out: TC50 (the source's name).
Series [2] can be described thus: Therapeutic index, TC50 for Human immunodeficiency virus 1 3B infected human CEM-SS cells to EC50 for immunodeficiency virus 1 3B. Type of series: cell-based. To be noted: CEM-SS cells infected with HIV-1 3B, read-out: TI.
For series [3], the system named is Human immunodeficiency virus 1. Briefly: Antiviral activity against Human immunodeficiency virus 1 3B infected in CEM-SS cells. Type of series: functional, organism-based.

Peptide text beside a SMILES is read from it.

CC50, selectivity ratio and EC50 data for eight compounds are collected here from ChEMBL document CHEMBL1275493, “Anti-human immunodeficiency virus type 1 activities of antimicrobial peptides derived from human and bovine cathelicidins” (Antimicrob Agents Chemother, 2008).

By EC50 is commonly meant the concentration that produces a half-maximal response. The low end stands for a more potent agent, the high end for a less potent agent.

Turning to `CC[C@H](C)[C@H](NC(=O)[C@H](CCCNC(=N)N)NC(=O)[C@H](CCC(N)=O)NC(=O)[C@@H](NC(=O)[C@@H](NC(=O)[C@H](CCCNC(=N)N)NC(=O)[C@H](CCCCN)NC(=O)[C@H](Cc1ccccc1)NC(=O)CN)[C@@H](C)CC)C(C)C)C(=O)N[C@@H](CCCCN)C(=O)N[C@@H](CC(=O)O)C(=O)N[C@@H](Cc1ccccc1)C(=O)N[C@@H](CC(C)C)C(=O)N[C@@H](CCCNC(=N)N)C(=O)N[C@@H](CC(N)=O)C(=O)N[C@@H](CC(C)C)C(=O)N[C@H](C(=O)O)C(C)C`, in series [1], the CC50 is 8.9 µM. In series [2], the selectivity ratio came to 9.1. In addition, in series [3], the EC50 stood at 0.98 µM.

On to `CC[C@H](C)[C@H](NC(=O)[C@H](CCCCN)NC(=O)[C@H](CCCCN)NC(=O)[C@H](Cc1ccccc1)NC(=O)[C@H](CC(C)C)NC(=O)[C@H](CCCCN)NC(=O)[C@H](CCCCN)NC(=O)[C@H](NC(=O)[C@H](CCCCN)NC(=O)[C@H](CCCCN)NC(=O)[C@H](CCCNC(=N)N)NC(=O)[C@H](NC(=O)[C@H](CCCNC(=N)N)NC(=O)[C@H](CCCCN)NC(=O)[C@H](Cc1ccccc1)NC(=O)[C@H](CCCNC(=N)N)NC(=O)CN)c1ccccc1)c1ccccc1)C(=O)N[C@@H](CO)C(=O)O`, for which the CC50 in series [1] came out at 10.2 µM. In addition, the selectivity ratio in series [2] worked out at 15. This compound yielded an EC50 in series [3] of 0.68 µM.

Turning to `CC[C@H](C)[C@H](NC(=O)[C@H](CCCNC(=N)N)NC(=O)[C@H](CCC(N)=O)NC(=O)[C@@H](NC(=O)[C@@H](NC(=O)[C@H](CCCNC(=N)N)NC(=O)[C@H](CCCCN)NC(=O)[C@@H](N)Cc1ccccc1)[C@@H](C)CC)C(C)C)C(=O)N[C@@H](CCCCN)C(=O)N[C@@H](CC(=O)O)C(=O)N[C@@H](Cc1ccccc1)C(=O)N[C@@H](CC(C)C)C(=O)N[C@@H](CCCNC(=N)N)C(=O)O` (H-FKRIVQRIKDFLR-OH), the CC50 in series [1] came out at 10.4 µM. The selectivity ratio in series [2] came to 3.1. The compound further registered an EC50 in series [3] of 3.4 µM.

Take `CC[C@H](C)[C@H](NC(=O)CN)C(=O)N[C@@H](CCCCN)C(=O)N[C@@H](CCC(=O)O)C(=O)N[C@@H](Cc1ccccc1)C(=O)N[C@@H](CCCCN)C(=O)N[C@@H](CCCNC(=N)N)C(=O)N[C@H](C(=O)N[C@H](C(=O)N[C@@H](CCC(N)=O)C(=O)N[C@@H](CCCNC(=N)N)C(=O)N[C@H](C(=O)N[C@@H](CCCCN)C(=O)N[C@@H](CC(=O)O)C(=O)N[C@@H](Cc1ccccc1)C(=O)N[C@@H](CC(C)C)C(=O)N[C@@H](CCCNC(=N)N)C(=O)N[C@@H](CC(N)=O)C(=O)N[C@@H](CC(C)C)C(=O)N[C@H](C(=O)O)C(C)C)[C@@H](C)CC)C(C)C)[C@@H](C)CC` (H-GIKEFKRIVQRIKDFLRNLV-OH): the CC50 in series [1] was determined as 22.7 µM. Moreover, the selectivity ratio in series [2] came to 21. The same compound registered an EC50 in series [3] of 1.08 µM.

`CC[C@H](C)[C@H](NC(=O)CN)C(=O)N[C@@H](CCCCN)C(=O)N[C@@H](CCC(N)=O)C(=O)N[C@@H](Cc1ccccc1)C(=O)N[C@@H](CCCCN)C(=O)N[C@@H](CCCNC(=N)N)C(=O)N[C@H](C(=O)N[C@H](C(=O)N[C@@H](CCC(N)=O)C(=O)N[C@@H](CCCNC(=N)N)C(=O)N[C@H](C(=O)N[C@@H](CCCCN)C(=O)N[C@@H](CC(=O)O)C(=O)N[C@@H](Cc1ccccc1)C(=O)N[C@@H](CC(C)C)C(=O)N[C@@H](CCCNC(=N)N)C(=O)N[C@@H](CC(N)=O)C(=O)N[C@@H](CC(C)C)C(=O)N[C@H](C(=O)O)C(C)C)[C@@H](C)CC)C(C)C)[C@@H](C)CC` (H-GIKQFKRIVQRIKDFLRNLV-OH): the selectivity ratio in series [2] was determined as 15.1. Besides, in series [3], the EC50 stood at 0.91 µM.

Consider `CC[C@H](C)[C@H](NC(=O)[C@H](CCCCN)NC(=O)[C@H](CCCCN)NC(=O)[C@H](Cc1ccccc1)NC(=O)[C@H](CC(C)C)NC(=O)[C@H](CCCCN)NC(=O)[C@H](CCCCN)NC(=O)[C@H](Cc1ccccc1)NC(=O)[C@H](CCCCN)NC(=O)[C@H](CCCCN)NC(=O)[C@H](CCCNC(=N)N)NC(=O)[C@H](Cc1ccccc1)NC(=O)[C@H](CCCNC(=N)N)NC(=O)[C@H](CCCCN)NC(=O)[C@H](Cc1ccccc1)NC(=O)[C@H](CCCNC(=N)N)NC(=O)CN)C(=O)N[C@@H](CO)C(=O)O` (H-GRFKRFRKKFKKLFKKIS-OH), for which the CC50 in series [1] came out at 8.45 µM. Besides, in series [2], the selectivity ratio was found to be 24.1. The compound further registered an EC50 in series [3] of 0.35 µM.

`CC[C@H](C)[C@H](NC(=O)[C@H](CCCCN)NC(=O)[C@H](CCCCN)NC(=O)[C@H](Cc1ccccc1)NC(=O)[C@H](CC(C)C)NC(=O)[C@H](CCCCN)NC(=O)[C@H](CCCCN)NC(=O)[C@H](Cc1ccccc1)NC(=O)[C@@H]1CCCN1C(=O)[C@H](CCCCN)NC(=O)[C@H](CCCNC(=N)N)NC(=O)[C@H](Cc1ccccc1)NC(=O)[C@H](CCCNC(=N)N)NC(=O)[C@H](CCCCN)NC(=O)[C@H](Cc1ccccc1)NC(=O)[C@H](CCCNC(=N)N)NC(=O)CN)C(=O)N[C@@H](CO)C(=O)O` (H-GRFKRFRKPFKKLFKKIS-OH): the CC50 in series [1] is 18.9 µM. The selectivity ratio in series [2] stood at 5.9. In addition, the EC50 in series [3] turned out to be 3.2 µM.

Consider `CC[C@H](C)[C@H](NC(=O)[C@H](CCCCN)NC(=O)[C@H](CCC(=O)O)NC(=O)[C@H](CCCCN)NC(=O)[C@@H](N)CO)C(=O)NCC(=O)N[C@@H](CCCCN)C(=O)N[C@@H](CCC(=O)O)C(=O)N[C@@H](Cc1ccccc1)C(=O)N[C@@H](CCCCN)C(=O)N[C@@H](CCCNC(=N)N)C(=O)N[C@H](C(=O)N[C@H](C(=O)N[C@@H](CCC(N)=O)C(=O)N[C@@H](CCCNC(=N)N)C(=O)N[C@H](C(=O)N[C@@H](CCCCN)C(=O)N[C@@H](CC(=O)O)C(=O)N[C@@H](Cc1ccccc1)C(=O)N[C@@H](CC(C)C)C(=O)N[C@@H](CCCNC(=N)N)C(=O)O)[C@@H](C)CC)C(C)C)[C@@H](C)CC` (H-SKEKIGKEFKRIVQRIKDFLR-OH), for which the CC50 in series [1] came out at 22.5 µM. Moreover, the selectivity ratio in series [2] came out at 2.08. The compound further displayed an EC50 in series [3] of 10.8 µM.
